The values that follow come from PubChem BioAssay AID493116 (Broad Institute, 2011).

Assay [1] can be described thus: AI-2 driven bioluminescence decrease, LuxPQ pathway – strain MM32 LuxS-null, luminescence, dry powder, set 4, mechanism study for V. harveyi quorum sensing inhibitors, dose response (AID 493116). As to conditions: V. harveyi MM32 AI-2 bioluminescence, 5 h; at 16 µM (top of the series).
Assay [2] relates to V. harveyi MM32 AI-2 bioluminescence, 5 h. The description is as above.

The structures appear in SMILES notation. The source made the active and inactive calls.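 Rule for the calls: active = falling signal with an AC50 no greater than ten times the top valid dose tested for that sample; inconclusive = flat response with 30 to 70% inhibition, or poor fit; inactive = activity in the rising direction, and the rest.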

Turning to `CCc1ccc(-c2ccc(C(=O)O)n2CC)cc1`, the activity change, negative = inhibition in assay [1] was 1.73% (inactive).

`COc1ccccc1NS(=O)(=O)c1cn(C)cn1`: the activity change, negative = inhibition in assay [1] is -4.54% (inactive).

As a reminder, the AC50 is the concentration giving half of the maximal activity seen. Turning to `Cn1cnc(S(=O)(=O)Nc2ccc(OC(F)(F)F)cc2)c1`, in assay [2], the half-maximal activity concentration (AC50) was 2390 nM.

For `O=S(=O)(Nc1ccccn1)c1ccc(Oc2ccccc2)cc1`, the concentration at half-maximal activity (AC50) in assay [2] was 2250 nM.

Take `C=Cn1c(C(=O)O)ccc1-c1ccc(OC)cc1`: the half-maximal activity concentration (AC50) in assay [2] is 6140 nM.

Regarding `Cc1ccccc1NS(=O)(=O)c1cn(C)cn1`, the AC50 in assay [2] was > 16000 nM (inactive).

On to `C=Cn1c(C(=O)O)ccc1-c1ccc(CC)cc1`, for which the half-maximal activity concentration (AC50) in assay [2] is 2340 nM.

Turning to `CC(=O)Nc1ccccc1NS(=O)(=O)c1cn(C)cn1`, the activity change, negative = inhibition in assay [1] was -2.94% (inactive).

`Cn1cnc(S(=O)(=O)Nc2ccccc2Cl)c1`: the AC50 in assay [2] is > 16000 nM (inactive).

`O=S(=O)(Nc1cccnc1)c1ccc(Oc2ccccc2)cc1`: the AC50 in assay [2] is 538 nM.

With `Cn1cnc(S(=O)(=O)Nc2ccccc2F)c1`, the activity change, negative = inhibition in assay [1] was -0.646% (inactive).

For `CCc1ccc(-c2ccc(C(=O)O)n2C)cc1`, the half-maximal activity concentration (AC50) in assay [2] was 2840 nM.

On to `O=C1C=C/C(=C/Br)O1`, for which, in assay [2], the AC50 was 2300 nM.

In the case of `CN(C)C(=O)c1ccccc1NS(=O)(=O)c1cn(C)cn1`, the activity change, negative = inhibition in assay [1] was 0.78% (inactive).
